Results reported in ChEMBL document CHEMBL1201862, “PubChem BioAssay data set” (2004).
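1) Cells in 96-well plates. 2) Compound, 48 h, 5 concentrations. 3) Linear interpolation between surrounding doses. 4) Unreached endpoint = highest concentration. GI50 marks 50% less growth.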 Activity calls are given as the source filed them. No stated cut-off is given here; in the data, active = GI50 up to about 1.1 µM and inactive = higher.

What was measured:
Test in all cases: DTP human tumour cell line panel, 48 h
786-0 = test system: 786-0
A498 = test system: A498
A549 = test system: A549
ACHN = test system: ACHN
BT-549 = test system: BT-549
CAKI-1 = test system: CAKI-1
CCRF-CEM = test system: CCRF-CEM
COLO 205 = test system: COLO 205
DU-145 = test system: DU-145
EKVX = test system: EKVX
HCT-116 = test system: HCT-116
HCT-15 = test system: HCT-15
HL-60 = test system: HL-60
HOP-92 = test system: HOP-92
HT-29 = test system: HT-29
Hs-578T = test system: Hs-578T
IGROV-1 = test system: IGROV-1
K562 = test system: K562
KM12 = test system: KM12
M14 = test system: M14
MDA-MB-231 = test system: MDA-MB-231
MDA-MB-435 = test system: MDA-MB-435
MDA-N = test system: MDA-N
MOLT-4 = test system: MOLT-4
Malme-3M = test system: Malme-3M
NCI-H226 = test system: NCI-H226
NCI-H23 = test system: NCI-H23
NCI-H460 = test system: NCI-H460
NCI-H522 = test system: NCI-H522
NCI/ADR-RES = test system: NCI/ADR-RES
OVCAR-4 = test system: OVCAR-4
OVCAR-5 = test system: OVCAR-5
OVCAR-8 = test system: OVCAR-8
PC-3 = test system: PC-3
RPMI-8226 = test system: RPMI-8226
RXF 393 = test system: RXF 393
SF-268 = test system: SF-268
SF-295 = test system: SF-295
SF-539 = test system: SF-539
SK-MEL-28 = test system: SK-MEL-28
SK-MEL-2 = test system: SK-MEL-2
SK-MEL-5 = test system: SK-MEL-5
SK-OV-3 = test system: SK-OV-3
SN12C = test system: SN12C
SNB-19 = test system: SNB-19
SNB-75 = test system: SNB-75
SR = test system: SR
SW-620 = test system: SW-620
T47D = test system: T47D
TK-10 = test system: TK-10
U-251 = test system: U-251
UACC-257 = test system: UACC-257
UACC-62 = test system: UACC-62
UO-31 = test system: UO-31
HCC 2998 = test system: HCC 2998
HOP-62 = test system: HOP-62
LOX IMVI = test system: LOX IMVI
MCF7 = test system: MCF7
OVCAR-3 = test system: OVCAR-3

## Clc1nc(Nc2nc3ccccc3[nH]2)nc(Cl)c1Cc1ccccc1
786-0
  GI50: 45.9 µM (inactive)
A498
  GI50: > 100 µM (inactive)
A549
  GI50: > 100 µM (inactive)
ACHN
  GI50: 85.7 µM (inactive)
BT-549
  GI50: > 100 µM (inactive)
CAKI-1
  GI50: > 100 µM (inactive)
CCRF-CEM
  GI50: 63.5 µM (inactive)
COLO 205
  GI50: > 100 µM (inactive)
DU-145
  GI50: > 100 µM (inactive)
EKVX
  GI50: > 100 µM (inactive)
HCT-116
  GI50: > 100 µM (inactive)
HCT-15
  GI50: 40.2 µM
HL-60
  GI50: > 100 µM (inactive)
HOP-92
  GI50: 23 µM (inactive)
HT-29
  GI50: 54.1 µM (inactive)
Hs-578T
  GI50: 32.4 µM (inactive)
IGROV-1
  GI50: 97.3 µM (inactive)
K562
  GI50: > 100 µM (inactive)
KM12
  GI50: 81.7 µM (inactive)
M14
  GI50: > 100 µM (inactive)
MDA-MB-231
  GI50: 30.7 µM (inactive)
MDA-MB-435
  GI50: > 100 µM (inactive)
MDA-N
  GI50: 66.4 µM (inactive)
MOLT-4
  GI50: > 100 µM (inactive)
Malme-3M
  GI50: > 100 µM (inactive)
NCI-H226
  GI50: > 100 µM (inactive)
NCI-H23
  GI50: > 100 µM (inactive)
NCI-H460
  GI50: 89.1 µM (inactive)
NCI-H522
  GI50: 37 µM (inactive)
NCI/ADR-RES
  GI50: > 100 µM (inactive)
OVCAR-4
  GI50: 36.1 µM (inactive)
OVCAR-5
  GI50: > 100 µM (inactive)
OVCAR-8
  GI50: > 100 µM (inactive)
PC-3
  GI50: > 100 µM (inactive)
RPMI-8226
  GI50: > 100 µM (inactive)
RXF 393
  GI50: > 100 µM (inactive)
SF-268
  GI50: 49.4 µM (inactive)
SF-295
  GI50: > 100 µM (inactive)
SF-539
  GI50: 31.2 µM (inactive)
SK-MEL-28
  GI50: > 100 µM (inactive)
SK-MEL-2
  GI50: > 100 µM (inactive)
SK-MEL-5
  GI50: > 100 µM (inactive)
SK-OV-3
  GI50: > 100 µM (inactive)
SN12C
  GI50: 59.4 µM (inactive)
SNB-19
  GI50: 93.1 µM (inactive)
SNB-75
  GI50: 17.9 µM (inactive)
SR
  GI50: > 100 µM (inactive)
SW-620
  GI50: > 100 µM (inactive)
T47D
  GI50: 89.3 µM (inactive)
TK-10
  GI50: > 100 µM (inactive)
U-251
  GI50: 29.6 µM (inactive)
UACC-257
  GI50: > 100 µM (inactive)
UACC-62
  GI50: 72.4 µM (inactive)
UO-31
  GI50: > 100 µM (inactive)

## COc1ccc(-c2cc(=O)c3c(OC)c(OC)c(OC)cc3o2)cc1
786-0
  GI50: 19.9 µM (inactive)
A498
  GI50: 19.8 µM (inactive)
A549
  GI50: 27.1 µM (inactive)
ACHN
  GI50: 24.4 µM (inactive)
BT-549
  GI50: 31.7 µM (inactive)
CAKI-1
  GI50: 68.7 µM (inactive)
CCRF-CEM
  GI50: 14 µM (inactive)
COLO 205
  GI50: 22.1 µM (inactive)
DU-145
  GI50: 25.5 µM (inactive)
EKVX
  GI50: 37.4 µM (inactive)
HCC 2998
  GI50: 16.8 µM (inactive)
HCT-116
  GI50: 32.6 µM (inactive)
HCT-15
  GI50: 32.7 µM
HL-60
  GI50: 11.7 µM (inactive)
HOP-62
  GI50: 21.1 µM (inactive)
HOP-92
  GI50: 20.6 µM (inactive)
HT-29
  GI50: 28.4 µM (inactive)
Hs-578T
  GI50: 35.6 µM (inactive)
IGROV-1
  GI50: 37.9 µM (inactive)
K562
  GI50: 34.4 µM (inactive)
LOX IMVI
  GI50: 28.2 µM (inactive)
M14
  GI50: 54.8 µM (inactive)
MCF7
  GI50: 37.4 µM (inactive)
MDA-MB-231
  GI50: 43.8 µM (inactive)
MDA-MB-435
  GI50: 32.2 µM (inactive)
MDA-N
  GI50: 40.6 µM (inactive)
MOLT-4
  GI50: 18 µM (inactive)
Malme-3M
  GI50: 38 µM (inactive)
NCI-H226
  GI50: 27 µM (inactive)
NCI-H23
  GI50: 40.6 µM (inactive)
NCI-H460
  GI50: 24 µM (inactive)
NCI-H522
  GI50: 23.7 µM (inactive)
NCI/ADR-RES
  GI50: 28.2 µM (inactive)
OVCAR-3
  GI50: 26.8 µM (inactive)
OVCAR-4
  GI50: 24.2 µM (inactive)
OVCAR-5
  GI50: 44 µM (inactive)
OVCAR-8
  GI50: 35.2 µM (inactive)
RPMI-8226
  GI50: 27 µM (inactive)
RXF 393
  GI50: 30.1 µM (inactive)
SF-268
  GI50: 31.1 µM (inactive)
SF-295
  GI50: 24.5 µM (inactive)
SF-539
  GI50: 81.8 µM (inactive)
SK-MEL-28
  GI50: 45.6 µM (inactive)
SK-MEL-2
  GI50: 21.1 µM (inactive)
SK-MEL-5
  GI50: 13.2 µM (inactive)
SK-OV-3
  GI50: 24.3 µM (inactive)
SN12C
  GI50: 25.2 µM (inactive)
SNB-19
  GI50: 45 µM (inactive)
SNB-75
  GI50: 26.9 µM (inactive)
SR
  GI50: 11.3 µM (inactive)
SW-620
  GI50: 36.8 µM (inactive)
T47D
  GI50: 17.8 µM (inactive)
TK-10
  GI50: 36 µM (inactive)
U-251
  GI50: 26.3 µM (inactive)
UACC-257
  GI50: 40.8 µM (inactive)
UACC-62
  GI50: 27.5 µM (inactive)
UO-31
  GI50: 19 µM (inactive)
